# Assay results from US7250442B2, “Dihydroindol-2-one derivatives as steroid hormone nuclear receptor modulators” (Eli Lilly and Company, priority 2003, dated 2007).
# Target: T1, human MR (Homo sapiens, UniProt P08235)
# T1 construct: The full length human MR gene is cloned from a human kidney or human brain cDNA library; made in house; host or cells: Sf9 insect cells (baculovirus, pAcHLT transfer vector)
# T1 sequence (P08235 1-984): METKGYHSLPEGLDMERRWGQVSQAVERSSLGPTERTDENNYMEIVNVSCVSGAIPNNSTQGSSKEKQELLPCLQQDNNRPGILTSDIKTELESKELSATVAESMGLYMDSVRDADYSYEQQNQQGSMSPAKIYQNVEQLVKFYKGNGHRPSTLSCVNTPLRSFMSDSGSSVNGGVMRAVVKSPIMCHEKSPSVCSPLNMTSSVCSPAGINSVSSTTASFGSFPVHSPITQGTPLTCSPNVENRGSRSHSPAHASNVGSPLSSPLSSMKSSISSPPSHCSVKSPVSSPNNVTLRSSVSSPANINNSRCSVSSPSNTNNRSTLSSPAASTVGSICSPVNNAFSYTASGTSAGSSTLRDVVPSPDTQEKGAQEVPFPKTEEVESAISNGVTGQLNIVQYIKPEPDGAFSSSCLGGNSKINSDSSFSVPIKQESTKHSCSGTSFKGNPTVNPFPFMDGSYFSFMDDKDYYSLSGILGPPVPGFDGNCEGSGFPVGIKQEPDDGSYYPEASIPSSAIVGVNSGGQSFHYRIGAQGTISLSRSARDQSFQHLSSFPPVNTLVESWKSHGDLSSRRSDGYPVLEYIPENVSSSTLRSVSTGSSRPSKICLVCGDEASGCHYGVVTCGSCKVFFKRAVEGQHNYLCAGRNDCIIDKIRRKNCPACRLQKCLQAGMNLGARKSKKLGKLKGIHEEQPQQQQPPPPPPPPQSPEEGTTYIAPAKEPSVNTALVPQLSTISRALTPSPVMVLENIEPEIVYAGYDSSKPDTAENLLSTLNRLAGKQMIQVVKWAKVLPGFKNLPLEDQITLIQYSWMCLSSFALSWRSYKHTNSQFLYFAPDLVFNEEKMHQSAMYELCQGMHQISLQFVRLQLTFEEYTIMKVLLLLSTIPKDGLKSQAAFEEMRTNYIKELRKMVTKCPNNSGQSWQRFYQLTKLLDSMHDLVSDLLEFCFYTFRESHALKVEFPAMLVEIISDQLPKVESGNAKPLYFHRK
# Assay: Mineralocorticoid Receptor Binding Assay ([3H]-aldosterone displacement)
# Settings: full length human MR expressed in Sf9 cells, 0.5 nM [3H]-aldosterone
# Summary of the method: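 Full-length human MR expressed in Sf9 cells; lysate (20-25 μg protein) incubated with 0.5 nM [3H]-aldosterone and test compound in molybdate/Tris/phosphate/glycerol buffer pH 7.5, 16 h at 4 °C. Bound ligand measured by filtration and scintillation counting; IC50 converted to Ki via Cheng-Prusoff.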
row,Ki [nM],SMILES
1,≤ 500,"Cc1cc(C2(c3cc(C)c(O)c(C)c3)C(=O)N(Cc3cccc([N+](=O)[O-])c3)c3ccccc32)cc(C)c1O [Example 85, 3,3-Bis-(4-hydroxy-3,5-dimethyl-phenyl)-1-(3-nitro-benzyl)-1,3-dihydro-indol-2-one]"
2,≤ 500,"C=C(C)CN1C(=O)C(c2cc(C)c(O)c(C)c2)(c2cc(C)c(O)c(C)c2)c2ccccc21 [Example 106, 3,3-Bis-(4-hydroxy-3,5-dimethyl-phenyl)-1-(2-methyl-allyl)-1,3-dihydro-indol-2-one]"
3,≤ 500,"COc1ccc(-c2nc(CN3C(=O)C(c4cc(C)c(O)c(C)c4)(c4cc(C)c(O)c(C)c4)c4ccccc43)no2)cc1 [Example 99, 3,3-Bis-(4-hydroxy-3,5-dimethyl-phenyl)-1-[5-(4-methoxy-phenyl)-[1,2,4]oxadiazol-3-ylmethyl]-1,3-dihydro-indol-2-one]"

# Continued, molecule first:
row,SMILES,Ki [nM]
1,"Cc1cc(C2(c3cc(C)c(O)c(C)c3)C(=O)N(Cc3ccc(Cl)cc3F)c3ccccc32)cc(C)c1O [Example 83, 1-(4-Chloro-2-fluoro-benzyl)-3,3-bis-(4-hydroxy-3,5-dimethyl-phenyl)-1,3-dihydro-indol-2-one]",≤ 500
2,"Cc1cc(C2(c3cc(C)c(O)c(C)c3)C(=O)N(Cc3ccccc3)c3ccc(Br)cc32)cc(C)c1O [Example 15, 1-Benzyl-5-bromo-3,3-bis-(4-hydroxy-3,5-dimethyl-phenyl)-1,3-dihydro-indol-2-one]",≤ 500
3,"Cc1cc(C2(c3cc(C)c(O)c(C)c3)C(=O)N(Cc3ccc(OCc4ccccc4)cc3)c3ccccc32)cc(C)c1O [Example 74, 1-(4-Benzyloxy-benzyl)-3,3-bis-(4-hydroxy-3,5-dimethyl-phenyl)-1,3-dihydro-indol-2-one]",≤ 500
